From patent US8148391B2 (Cephalon, Inc., priority 2006, dated 2012)
Read-outs that look alike come from different tables or passages of the source. Blank lines part the entries; values can stand above or below the molecule they belong to.

Tests used:
[1] = biological target: T1, c-Met (cytoplasmic domain) (Homo sapiens, UniProt P08581); experiment: c-Met Kinase Assay (same methods as for ALK, with modifications); format: biochemical
T1 construct: 10 ng/mL c-Met (cytoplasmic domain, Invitrogen Corporation #PV3143); purchased Invitrogen Corporation PV3143
Experimental: (§1) Briefly, each 96-well plate was coated with 100 μL/well of 10 μg/mL substrate (phospholipase C-γ) in Tris-buffered saline (TBS). […] The reaction was initiated by adding enzyme (30 ng/ml ALK) and was allowed to proceed at 37° C. for 15 minutes. Detection of the phosphorylated product was performed by adding 100 μl/well of Eu-N1 labeled PT66 antibody (Perkin Elmer # AD0041).
(§2) Data analysis was performed using ActivityBase (IDBS, Guilford, UK). IC50 values were calculated by plotting percent inhibition versus log10 of the concentration of compound and fitting to the nonlinear regression sigmoidal dose-response (variable slope) equation in XLFit (IDBS, Guilford, UK).
Reactions were initiated with 10 ng/mL c-Met (cytoplasmic domain, Invitrogen Corporation #PV3143).

[2] = biological target: T2, baculovirus-expressed ALK (Homo sapiens, UniProt Q9UM73); experiment: ALK Kinase Assay (ELISA-type, time-resolved fluorescence); format: biochemical
T2 construct: host or cells: baculovirus expression system
Experimental: as §1, §2

[3] = c-Met kinase inhibition, 1 μM ATP, read-out: cMet Activity
[4] = ALK kinase inhibition, 1 μM ATP, read-out: ALK Activity
[5] = 1 μM ATP (Km level), 10 ng/mL c-Met, read-out: cMet Activity (c-Met kinase inhibition, IC50 class)
[6] = 1 μM ATP (Km level), 30 ng/ml ALK, 37° C., 15 minutes, read-out: ALK Activity (ALK kinase inhibition, IC50 class)
[7] = 1 μM ATP (Km level), read-out: cMet Activity (c-Met Kinase Inhibition, IC50)
[8] = 1 μM ATP (Km level), read-out: ALK Activity (ALK Kinase Inhibition, IC50)
[9] = c-Met kinase inhibition, 1 μM ATP (Km level), read-out: cMet Activity

T2 sequence (Q9UM73 19-1620): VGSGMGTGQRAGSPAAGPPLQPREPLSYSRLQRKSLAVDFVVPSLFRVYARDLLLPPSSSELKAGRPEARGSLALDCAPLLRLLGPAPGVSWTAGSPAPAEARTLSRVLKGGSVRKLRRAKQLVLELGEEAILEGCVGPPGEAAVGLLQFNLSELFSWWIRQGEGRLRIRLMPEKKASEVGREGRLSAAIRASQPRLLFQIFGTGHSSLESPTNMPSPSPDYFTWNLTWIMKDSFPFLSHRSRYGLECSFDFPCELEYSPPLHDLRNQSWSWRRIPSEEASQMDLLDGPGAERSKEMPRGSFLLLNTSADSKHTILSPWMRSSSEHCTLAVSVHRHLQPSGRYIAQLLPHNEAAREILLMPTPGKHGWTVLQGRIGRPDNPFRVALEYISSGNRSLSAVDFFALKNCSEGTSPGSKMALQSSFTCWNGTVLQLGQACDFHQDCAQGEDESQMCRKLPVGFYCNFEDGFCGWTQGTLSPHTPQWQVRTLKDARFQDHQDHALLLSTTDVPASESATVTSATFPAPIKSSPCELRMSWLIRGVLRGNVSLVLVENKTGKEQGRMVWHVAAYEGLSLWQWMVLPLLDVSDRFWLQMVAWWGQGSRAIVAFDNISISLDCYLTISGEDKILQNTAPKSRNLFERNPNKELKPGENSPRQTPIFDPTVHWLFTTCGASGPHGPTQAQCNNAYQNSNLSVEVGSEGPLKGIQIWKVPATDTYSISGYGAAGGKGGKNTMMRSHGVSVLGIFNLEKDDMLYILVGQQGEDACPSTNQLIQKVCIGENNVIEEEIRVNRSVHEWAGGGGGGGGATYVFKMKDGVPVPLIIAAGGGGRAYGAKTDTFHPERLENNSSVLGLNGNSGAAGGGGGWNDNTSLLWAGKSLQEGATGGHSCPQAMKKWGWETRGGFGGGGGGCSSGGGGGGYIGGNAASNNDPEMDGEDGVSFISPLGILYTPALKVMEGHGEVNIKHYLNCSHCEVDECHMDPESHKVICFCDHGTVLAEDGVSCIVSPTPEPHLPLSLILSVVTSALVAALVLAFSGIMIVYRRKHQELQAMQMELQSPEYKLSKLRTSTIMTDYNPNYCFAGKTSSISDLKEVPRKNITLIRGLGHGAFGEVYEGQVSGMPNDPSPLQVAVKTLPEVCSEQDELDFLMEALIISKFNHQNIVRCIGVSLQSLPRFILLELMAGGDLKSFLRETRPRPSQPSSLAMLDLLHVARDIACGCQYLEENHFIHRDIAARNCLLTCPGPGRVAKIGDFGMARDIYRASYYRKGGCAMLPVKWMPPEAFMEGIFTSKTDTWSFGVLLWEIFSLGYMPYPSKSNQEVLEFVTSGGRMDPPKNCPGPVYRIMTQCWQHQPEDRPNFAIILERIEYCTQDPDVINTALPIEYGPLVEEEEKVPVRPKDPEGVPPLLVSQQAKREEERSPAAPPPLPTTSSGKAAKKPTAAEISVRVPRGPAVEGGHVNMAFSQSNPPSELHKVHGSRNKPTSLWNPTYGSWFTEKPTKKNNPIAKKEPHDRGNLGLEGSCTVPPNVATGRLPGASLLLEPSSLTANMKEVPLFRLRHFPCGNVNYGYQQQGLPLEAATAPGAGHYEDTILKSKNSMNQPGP
T1 sequence (P08581 956-1390 limits assumed): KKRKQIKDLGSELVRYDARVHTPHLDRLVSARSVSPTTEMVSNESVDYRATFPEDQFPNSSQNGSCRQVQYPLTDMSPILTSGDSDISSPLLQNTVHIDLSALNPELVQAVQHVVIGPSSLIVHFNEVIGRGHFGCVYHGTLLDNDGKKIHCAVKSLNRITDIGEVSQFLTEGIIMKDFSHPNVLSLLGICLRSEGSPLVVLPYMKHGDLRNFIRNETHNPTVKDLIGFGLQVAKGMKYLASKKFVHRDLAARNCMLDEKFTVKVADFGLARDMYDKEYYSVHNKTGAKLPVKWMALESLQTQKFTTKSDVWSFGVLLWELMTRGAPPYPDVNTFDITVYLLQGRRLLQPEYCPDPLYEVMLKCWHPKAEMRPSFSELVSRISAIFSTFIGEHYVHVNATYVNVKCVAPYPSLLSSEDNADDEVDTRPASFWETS

- IC50 [1, 3]: 100 to 1000 nM
- IC50 [2, 4]: 1000 to 10000 nM
SMILES: CNC(=O)c1cnn(C)c1Nc1nc(Nc2ccc3c(c2)CCOC(=O)N3C)ncc1Cl [Example 1776, 5-[5-Chloro-2-(5-methyl-6-oxo-5,6,8,9-tetrahydro-7-oxa-5-aza-benzocyclohepten-2-ylamino)-pyrimidin-4-ylamino]-1-methyl-1H-pyrazole-4-carboxylic acid methylamide]

- IC50 [1, 3]: 1000 to 10000 nM
- IC50 [2, 4]: < 100 nM
SMILES: COc1cc2c(cc1Nc1ncc(Cl)c(Nc3ccccc3S(=O)(=O)N3CC[C@@H](O)C3)n1)CCN(CC(C)(C)O)CC2 [Example 1561, (R)-1-(2-{5-Chloro-2-[3-(2-hydroxy-2-methyl-propyl)-8-methoxy-2,3,4,5-tetrahydro-1H-3-benzazepin-7-ylamino]-pyrimidin-4-ylamino}-benzenesulfonyl)-pyrrolidin-3-ol]

- IC50 [1, 5]: > 10000 nM
- IC50 [2, 6]: < 100 nM
SMILES: COc1cc2c(cc1Nc1ncc(Cl)c(Nc3ccccc3-n3cccn3)n1)CCC(N1CCOCC1)CC2 (stereo not drawn) [Example 1052, 5-Chloro-N*2*-(3-methoxy-7-morpholin-4-yl-6,7,8,9-tetrahydro-5H-benzocyclohepten-2-yl)-N*4*-(2-pyrazol-1-yl-phenyl)-pyrimidine-2,4-diamine]

- IC50 [1, 7]: > 10000 nM
- IC50 [2, 8]: < 100 nM
SMILES: COc1ccc(Nc2nc(Nc3cc4c(cc3OC)CCN(C(=O)C3COCCO3)CC4)ncc2Cl)c(-n2cccn2)c1 (stereo not drawn) [Example 633, {7-[5-Chloro-4-(4-methoxy-2-pyrazol-1-yl-phenylamino)-pyrimidin-2-ylamino]-8-methoxy-1,2,4,5-tetrahydro-benzo[d]azepin-3-yl}-[1,4]dioxan-2-yl-methanone]

SMILES: COCCN1C2CCC1c1cc(Nc3ncc(Cl)c(N[C@@H]4CCCC[C@H]4NS(C)(=O)=O)n3)ccc1C2 (stereo partly drawn) [Example 77, N-((1R,2R)-2-{5-Chloro-2-[12-(2-methoxy-ethyl)-12-aza-tricyclo[7.2.1.0*2,7*]dodeca-2(7),3,5-trien-4-ylamino]-pyrimidin-4-ylamino}-cyclohexyl)-methanesulfonamide]
- IC50 [1, 9]: 100 to 1000 nM
- IC50 ([2]; ALK kinase inhibition, 1 μM ATP (Km level), read-out: ALK Activity): < 100 nM

- IC50 [1, 3]: 100 to 1000 nM
- IC50 [2, 4]: < 100 nM
SMILES: C#CCNC(=O)c1cccc(F)c1Nc1nc(Nc2ccc3c(c2)N(CCN(C)C)CCCC3(C)C)ncc1Cl [Example 1639, 2-{5-Chloro-2-[1-(2-dimethylamino-ethyl)-5,5-dimethyl-2,3,4,5-tetrahydro-1H-benzo[b]azepin-8-ylamino]-pyrimidin-4-ylamino}-3-fluoro-N-prop-2-ynyl-benzamide]

- IC50 [1, 7]: > 10000 nM
- IC50 [2, 8]: < 100 nM
SMILES: COc1cc2c(cc1Nc1ncc(Cl)c(Nc3ccccc3S(=O)(=O)C(C)C)n1)CCN(CC(F)F)CC2 [Example 827, 5-Chloro-N*2*-[3-(2,2-difluoro-ethyl)-8-methoxy-2,3,4,5-tetrahydro-1H-benzo[d]azepin-7-yl]-N*4*-[2-(propane-2-sulfonyl)-phenyl]-pyrimidine-2,4-diamine]

- IC50 [1, 7]: < 100 nM
- IC50 [2, 8]: < 100 nM
SMILES: COCCN1CCc2ccc(Nc3ncc(Cl)c(Nc4c(F)cccc4OCC#N)n3)cc2CC1 [Example 931, (2-{5-Chloro-2-[3-(2-methoxy-ethyl)-2,3,4,5-tetrahydro-1H-3-benzazepin-7-ylamino]-pyrimidin-4-ylamino}-3-fluoro-phenoxy)-acetonitrile]

- IC50 [1, 5]: > 10000 nM
- IC50 [2, 6]: 100 to 1000 nM
SMILES: COCCN1CCc2ccc(Nc3ncc(Cl)c(N[C@H]4CC[C@H](NS(C)(=O)=O)CC4)n3)cc2CC1 [Example 1378, trans-N-(4-{5-Chloro-2-[3-(2-methoxy-ethyl)-2,3,4,5-tetrahydro-1H-benzo[d]azepin-7-ylamino]-pyrimidin-4-ylamino}-cyclohexyl)-methanesulfonamide]

- IC50 [1, 3]: 1000 to 10000 nM
- IC50 [2, 4]: < 100 nM
SMILES: CCN1CCN(CC(=O)OCCOC)C(=O)c2ccc(Nc3ncc(Cl)c(N[C@H]4[C@@H]5CC[C@@H](C5)[C@H]4C(N)=O)n3)cc21 [Example 1457, {8-[4-((1R,2S,3R,4S)-3-Carbamoyl-bicyclo[2.2.1]hept-2-ylamino)-5-chloro-pyrimidin-2-ylamino]-1-ethyl-5-oxo-1,2,3,5-tetrahydro-benzo[e][1,4]diazepin-4-yl}-acetic acid 2-methoxy-ethyl ester]

- IC50 [1, 5]: > 10000 nM
- IC50 [2, 6]: < 100 nM
SMILES: COc1cc2c(cc1Nc1ncc(Cl)c(N[C@H]3[C@@H](C(N)=O)[C@@H]4C=C[C@H]3C4)n1)CCC(NCCO)CC2 (single isomer, unassigned) [Example 1097]

- IC50 [1, 5]: < 100 nM
- IC50 [2, 6]: < 100 nM
SMILES: COc1cc2c(cc1Nc1ncc(Cl)c(N[C@@H]3CCCC[C@H]3NS(C)(=O)=O)n1)CCC(N1CCN(C)CC1)CC2 (single isomer, unassigned) [Example 1102]

- IC50 [1, 5]: > 10000 nM
SMILES: COCCOc1ccc(Nc2nc(Nc3cc4c(cc3OC)CCN(CC(=O)N(C)C)CC4)ncc2Cl)c(OC)c1 [Example 1169, 2-(7-{5-Chloro-4-[2-methoxy-4-(2-methoxy-ethoxy)-phenylamino]-pyrimidin-2-ylamino}-8-methoxy-1,2,4,5-tetrahydro-benzo[d]azepin-3-yl)-N,N-dimethyl-acetamide]

- IC50 [1, 7]: > 10000 nM
SMILES: COc1ccc(Nc2nc(Nc3cc4c(cc3OC)CCN(CC(=O)N(C)C)CC4)ncc2Cl)c(OC)c1 [Example 812, 2-{7-[5-Chloro-4-(2,4-dimethoxy-phenylamino)-pyrimidin-2-ylamino]-8-methoxy-1,2,4,5-tetrahydro-benzo[d]azepin-3-yl}-N,N-dimethyl-acetamide]

- IC50 [1, 9]: > 10000 nM
SMILES: CCN1C(=O)CCCc2c1ccc(Nc1ncc(Cl)c(Nc3ccc(N4CCOCC4)cc3OC)n1)c2OC [Example 119, 7-[5-Chloro-4-(2-methoxy-4-morpholin-4-yl-phenylamino)-pyrimidin-2-ylamino]-1-ethyl-6-methoxy-1,3,4,5-tetrahydro-benzo[b]azepin-2-one]

- IC50 [1, 5]: > 10000 nM
SMILES: COc1cc2c(cc1Nc1ncc(Cl)c(Nc3ccc(C(N)=O)cc3OC)n1)CCN(CC(=O)N(C)C)CC2 [Example 1146, 4-[5-Chloro-2-(3-dimethylcarbamoylmethyl-8-methoxy-2,3,4,5-tetrahydro-1H-benzo[d]azepin-7-ylamino)-pyrimidin-4-ylamino]-3-methoxy-benzamide]

- IC50 [1, 5]: > 10000 nM
SMILES: COc1cc2c(cc1Nc1ncc(Cl)c(Nc3ccccc3OC)n1)CCN(CC(=O)N(C)C)CC2 [Example 1130, 2-{7-[5-Chloro-4-(2-methoxy-phenylamino)-pyrimidin-2-ylamino]-8-methoxy-1,2,4,5-tetrahydro-benzo[d]azepin-3-yl}-N,N-dimethyl-acetamide]

- IC50 [1, 5]: > 10000 nM
SMILES: CNC(=O)CN1CCc2cc(Nc3ncc(Cl)c(Nc4ccc(N5CCOCC5)cc4OC)n3)c(OC)cc2CC1 [Example 1113, 2-{7-[5-Chloro-4-(2-methoxy-4-morpholin-4-yl-phenylamino)-pyrimidin-2-ylamino]-8-methoxy-1,2,4,5-tetrahydro-benzo[d]azepin-3-yl}-N-methyl-acetamide]

- IC50 [1, 5]: > 10000 nM
SMILES: COc1cc2c(cc1Nc1ncc(Cl)c(Nc3ccc(N4CCOCC4)cc3)n1)CCN(CC(=O)N(C)C)CC2 [Example 1150, 2-{7-[5-Chloro-4-(4-morpholin-4-yl-phenylamino)-pyrimidin-2-ylamino]-8-methoxy-1,2,4,5-tetrahydro-benzo[d]azepin-3-yl}-N,N-dimethyl-acetamide]

- IC50 [1, 9]: > 10000 nM
SMILES: COCCN1CCc2cc(Nc3ncc(Cl)c(Nc4ccc(N5CCOCC5)cc4OC)n3)c(OC)cc2CC1 [Example 113, 5-Chloro-N*2*-[8-methoxy-3-(2-methoxy-ethyl)-2,3,4,5-tetrahydro-1H-benzo[d]azepin-7-yl]-N*4*-(2-methoxy-4-morpholin-4-yl-phenyl)-pyrimidine-2,4-diamine]

- IC50 ([1]; cMet Activity, c-Met kinase inhibition, 1 μM ATP (Km level)): > 10000 nM
SMILES: COc1cc2c(cc1Nc1ncc(Cl)c(Nc3ccc(N4CCOCC4)cc3OC)n1)CCN(CC(=O)N(C)C)CC2 [Example 261, 2-{7-[5-Chloro-4-(2-methoxy-4-morpholin-4-yl-phenylamino)-pyrimidin-2-ylamino]-8-methoxy-1,2,4,5-tetrahydro-benzo[d]azepin-3-yl}-N,N-dimethyl-acetamide]

- IC50 [1, 5]: > 10000 nM
SMILES: COc1cc2c(cc1Nc1ncc(Cl)c(Nc3ccc(N4CCOCC4)cc3OC)n1)CCN(CCS(C)(=O)=O)CC2 [Example 1120, 5-Chloro-N*2*-[3-(2-methanesulfonyl-ethyl)-8-methoxy-2,3,4,5-tetrahydro-1H-benzo[d]azepin-7-yl]-N*4*-(2-methoxy-4-morpholin-4-yl-phenyl)-pyrimidine-2,4-diamine]

- IC50 [1, 7]: > 10000 nM
SMILES: COc1cc2c(cc1Nc1ncc(Cl)c(Nc3ccc(N4CCOCC4)cc3OC)n1)CCN(CC(F)F)CC2 [Example 761, 5-Chloro-N*2*-[3-(2,2-difluoro-ethyl)-8-methoxy-2,3,4,5-tetrahydro-1H-benzo[d]azepin-7-yl]-N*4*-(2-methoxy-4-morpholin-4-yl-phenyl)-pyrimidine-2,4-diamine]

- IC50 [1, 5]: > 10000 nM
SMILES: COc1cc2c(cc1Nc1ncc(Cl)c(Nc3ccc(C#N)cc3OC)n1)CCN(CC(=O)N(C)C)CC2 [Example 1163, 2-{7-[5-Chloro-4-(4-cyano-2-methoxy-phenylamino)-pyrimidin-2-ylamino]-8-methoxy-1,2,4,5-tetrahydro-benzo[d]azepin-3-yl}-N,N-dimethyl-acetamide]
